Data taken from US10766942B2, “Fragments of syndecan-2 having anti-angiogenic activity” (Queen Mary University of London, priority 2014, dated 2020).

Columns and labels:
brain ECs = assay: Scratch wound migration assay on brain ECs with murine syndecan-2 GST fusion proteins; format: cell-based; settings: 0.5 μM fusion protein, vs GST alone
Experimental: Scratch wound migration assays were performed in the presence of 0.5 μM of the fusion proteins indicated on brain ECs. Cell migration is measured by time lapse microscopy using an Olympus IX81 microscope with a controlled environment chamber set at 37° C., 10% CO2. Images were captured every 30 minutes using a Hamamatsu Orca ER digital camera and processed using Cell^M software (Olympus). (A) Phase contrast images 9 hours after the scratch was made. (B) EC migration speed is reduced in the presence of S2ED proteins containing the 18aa regulatory domain. Cell speed data represents mean measurements from at least 25 individual cells at the leading edge per treatment.
Migration assays were also performed on brain ECs in the presence of murine syndecan-2 GST fusion proteins—either S2ED or the truncated forms of this protein (S2EDΔP^124-F^141 and S2EDΔL^73-G^123).
Scratch wound migration assays: Scratch wound migration assays were performed on confluent monolayers of ECs. Wounds were made using a pipette tip, and fusion proteins were added to the medium and images were captured every 30 minutes for 12 hours by time lapse microscopy using an Olympus IX81 microscope. Percentage wound closure was calculated and individual cells tracked using Image J.

[1] = tested on: Rat aortas (aortic ring sections); assay: Rat aortic ring angiogenic sprouting assay in collagen I matrices; format: cell-based; settings: 0.5 μM in collagen I matrix; rat aortic rings; vs untreated and GST controls
Experimental: (A) Diagram of the murine syndecan-2 mutant proteins used in this study. (B) Rat aortas were seeded in collagen I matrices as above containing 0.5 μM of GST(control), S2ED or the mutant forms of S2ED. Sprouts from 8 rings per condition were counted and the mean calculated. Error bars represent the SEM and significance was calculated using a one way ANOVA with Bonferroni multiple comparison (p***<0.005, p****<0.0001).
In another assay with murine peptides, full length S2ED, S2EDΔP^124-F^141 (lacking adhesion regulatory domain) or S2EDΔL^73-G^123 (truncated form containing only the adhesion regulatory residues) were incorporated into collagen matrices in which aortic ring sections were embedded (FIGS. 4A and B).
Aortic ring assay: Thoracic aortas dissected from cervically dislocated 180-200 g male wistar rats (Harlan Laboratories) or 6 week old C57BL/6 mice (Charles River) were sliced into 0.5 mm sections and incubated overnight in serum free OptiMEM (Invitrogen) at 37° C. […] Angiogenic sprouts from rat and mouse aortas were counted after 4 days and 8 days respectively (Method based on that of Nicosia and Ottinetti (Laboratory Investigation 63:115-122, 1990) and modified in De Rossi et al. (Journal of Genetic Syndromes & Gene Therapy 4, 2013).

CD148 = molecular target: T1, CD148 (Mus musculus, UniProt Q64455); assay: CD148 pull down from EC lysates with GST fusion protein coated beads, Western blot; format: binding; settings: protein-coated beads as bait
T1 construct: endogenous in cells; bEND3.1 cells
T1 sequence (Q64455 29-1238): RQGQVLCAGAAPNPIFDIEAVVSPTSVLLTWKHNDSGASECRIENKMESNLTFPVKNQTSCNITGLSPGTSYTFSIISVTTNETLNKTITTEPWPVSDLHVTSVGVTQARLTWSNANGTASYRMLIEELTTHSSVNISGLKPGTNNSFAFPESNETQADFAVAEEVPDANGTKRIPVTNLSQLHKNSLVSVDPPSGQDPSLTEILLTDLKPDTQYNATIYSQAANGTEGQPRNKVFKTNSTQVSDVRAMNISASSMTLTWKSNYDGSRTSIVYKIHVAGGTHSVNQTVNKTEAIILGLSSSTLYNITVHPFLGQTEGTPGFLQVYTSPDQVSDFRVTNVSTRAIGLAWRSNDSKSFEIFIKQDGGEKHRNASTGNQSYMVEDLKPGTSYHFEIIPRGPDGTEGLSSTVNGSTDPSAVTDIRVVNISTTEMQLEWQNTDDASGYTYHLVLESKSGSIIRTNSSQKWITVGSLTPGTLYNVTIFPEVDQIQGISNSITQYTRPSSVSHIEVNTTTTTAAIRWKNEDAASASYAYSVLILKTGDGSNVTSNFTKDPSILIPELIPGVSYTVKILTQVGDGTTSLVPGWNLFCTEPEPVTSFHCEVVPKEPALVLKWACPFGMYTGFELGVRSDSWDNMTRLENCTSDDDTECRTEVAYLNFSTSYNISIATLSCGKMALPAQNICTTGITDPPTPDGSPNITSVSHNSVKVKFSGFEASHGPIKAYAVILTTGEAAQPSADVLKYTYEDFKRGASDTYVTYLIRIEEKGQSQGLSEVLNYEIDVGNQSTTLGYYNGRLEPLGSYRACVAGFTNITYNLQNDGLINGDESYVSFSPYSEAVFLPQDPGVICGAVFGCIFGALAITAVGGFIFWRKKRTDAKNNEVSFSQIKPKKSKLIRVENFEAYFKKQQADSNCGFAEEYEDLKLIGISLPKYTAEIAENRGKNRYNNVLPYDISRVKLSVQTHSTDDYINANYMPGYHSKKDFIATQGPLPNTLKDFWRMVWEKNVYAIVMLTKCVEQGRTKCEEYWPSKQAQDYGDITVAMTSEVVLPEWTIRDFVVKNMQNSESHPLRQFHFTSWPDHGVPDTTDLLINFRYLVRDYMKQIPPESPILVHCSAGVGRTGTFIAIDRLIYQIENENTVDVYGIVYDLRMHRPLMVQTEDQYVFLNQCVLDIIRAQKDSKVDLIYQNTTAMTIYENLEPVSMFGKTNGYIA
Experimental: (A) bEND3.1, MLEC and sEND cells express CD148. Western blot of lysates from the EC lines indicated were probed with antibodies to CD148 or β-tubulin. (B) CD148 interacts with murine syndecan extracellular core protein (S2ED). Cell lysates from sEND cells were incubated with beads coated with GST(control), S2ED, S2EDΔP^124-F^141 or S2EDΔL^73-G^123. Precipitates were analysed by Western blot for the presence of CD148. CD148 was only pulled down by forms of S2ED which contain the C-terminal 18 amino acid adhesion regulatory domain. Blot is representative of 4 experiments.
In fibroblasts the protein tyrosine phosphatase receptor CD148 interacts directly with the adhesion regulatory domain of S2ED leading to β1 integrin mediated cell attachment and spreading (Whiteford et al., 2011 Mol Biol Cell, 22(19):3609-24). To determine whether CD148 is a mediator for EC responses to S2ED the expression of CD148 on ECs from brain, lung and skin was confirmed.
CD148 pulldown and Western blot: Confluent bEND3.1 cells were lysed in 1% tritonx100 in TBS containing HALT protease and phosphatase inhibitors (Pierce). GST and S2ED were bound to glutathione-sepharose beads (GE Healthcare) and were added to cell lysates and incubated for 1 hour. Beads were isolated by centrifugation and washed twice in TBS, prior to incubation in Laemmli buffer and analysis by Western blot using standard procedures.

| Substance | EC cell migration (wound closure) (brain ECs) | Angiogenic sprout formation [1] | Pull-down of CD148 from EC lysates (CD148) |
| --- | --- | --- | --- |
| S2ED: murine syndecan-2 extracellular core protein, full length, GST fusion protein (SEQ ID NO 3) | inhibited EC cell migration | severely compromised | successfully pull-down CD148 |
| S2EDΔL^73-G^123: truncated murine syndecan-2 GST fusion protein containing only the adhesion regulatory residues (SEQ ID NO 5) | inhibited EC cell migration | severely compromised | successfully pull-down CD148 |
| S2EDΔP^124-F^141: murine syndecan-2 GST fusion mutant lacking adhesion regulatory domain (SEQ ID NO 4) | did not affect cell migration | – | No CD148 was evident |
